Patent publication US9603866B2, “Anti-fatigue composition, formulation and use thereof” (priority 2010, dated 2017)
Marks after values point to notes of the source that are not given here.

Tests used:
[1] = Animal weight during the 30-day gavage of the burden swimming study; type: in vivo, mice; conditions: gavage once a day, 30 days
Protocol: (§1) 1. Experimental animals: ICR mice, male, 18-22 g, provided by Shanghai Slack laboratory animal Co. Ltd., license number: SCXK (Shanghai) 2007-0005;
(§2) 3. Experimental groups: the mice are randomly divided into 19 groups by weight, 20 mice per each group; the detailed groups are as follows:
(§3) 0.2 ml/10 g of drug is administrated by gavage every day; for normal control group, 0.2 ml/10 g of distilled water is administrated by gavage every day; once a day, 30 days in total.

ICR mice = assay: Mice burden swimming test; type: in vivo; conditions: for Swimming time / Change rate of swimming time: gavage once a day, 30 days; for Swimming time: 6% body weight load; for Change rate of swimming time: vs normal control
Protocol: According to the Technical Standards for Testing & Assessment of Health Food issued by the Ministry of Health, P. R. China, function and biochemistry indexes assessment of the mixture of 20(S)-protopanoxadiol and lycium barbarum polysaccharide on the function of relieving physical fatigue is conducted; the detailed method is given as follows:
as §1
20(S)-protopanoxadiol: provide by Shanghai Innovative Research Center of Traditional Chinese Medicine, batch number: 20050606-1, purity: 94%; lycium barbarum polysaccharide: provided by Shanghai KangZhou Fungi Extract Co. Ltd., polysaccharide content≧30%.
To 20(S)-protopanoxadiol is added a small amount of 0.3% CMC-Na, followed by grinding to form a suspension and diluting with CMC-Na to a desired concentration. Then lycium barbarum polysaccharide is added to the 20(S)-protopanoxadiol suspension to form a composition with a certain concentration.
as §2, §3
30 minutes after the last time of administrating drug, the end of the tail of each mouse is loaded with copper wires corresponding to 6% of its body weight, then the mouse is put in a swimming box to swim, the time from start of swimming to death of the mouse is recorded, i.e. the mice burden swimming time; the water depth in the swimming box is 30 cm or more, and water temperature is 23+1.0° C.
5. Statistical data processing: t-test is conducted to calculate P value, Jin Zhengjun formula is used to conduct combined medication analysis.
Other than the combined dosage of Experimental example 1, the range of combined dosage is enlarged to conduct multi-batch experiments. The experimental animals, drugs and method are the same as those of Experimental example 1, and the final results are shown in Table 2: […]

For CC(C)=CCC[C@](C)(O)[C@H]1CC[C@]2(C)[C@@H]1[C@H](O)C[C@@H]1[C@@]3(C)CC[C@H](O)C(C)(C)[C@@H]3CC[C@]12C [20(S)-protopanoxadiol], the “Animal weight start/finish (finish)” value ([1]; 0.01 mg/kg) was 21.6/39.2 g, the “Animal weight start/finish (finish)” value ([1]; 0.5 mg/kg) was 21.8/38.8 g and the “Animal weight start/finish (finish)” value ([1]; 1 mg/kg) was 21.7/38.7 g. For the same compound, the “Animal weight start/finish (finish)” value ([1]; 5 mg/kg) was 21.8/38.9 g, the Swimming time (ICR mice; 0.01 mg/kg) was 640 ± 275 s and the “Change rate of swimming time” value (ICR mice; 0.01 mg/kg) was 1.5%. For the same compound, the Swimming time (ICR mice; 0.5 mg/kg) was 660 ± 268 s, the “Change rate of swimming time” value (ICR mice; 0.5 mg/kg) was 1.9% and the Swimming time (ICR mice; 1 mg/kg) was 658 ± 296 s. The “Change rate of swimming time” value (ICR mice; 1 mg/kg) was 2.2%, the Swimming time (ICR mice; 5 mg/kg) was 640 ± 286 s and the “Change rate of swimming time” value (ICR mice; 5 mg/kg) was 1.5%. The “Swimming time change rate” value (ICR mice; Table 2, 0.01 mg/kg) was 1.5%, the “Swimming time change rate” value (ICR mice; Table 2, 0.5 mg/kg) was 1.9% and the “Swimming time change rate” value (ICR mice; Table 2, 1 mg/kg) was 2.2%. For the same compound, the “Swimming time change rate” value (ICR mice; Table 2, 3 mg/kg) was 1.6%, the “Swimming time change rate” value (ICR mice; Table 2, 6.25 mg/kg) was 1.4% and the “Swimming time change rate” value (ICR mice; Table 2, 12.5 mg/kg) was 3.4%. The “Swimming time change rate” value (ICR mice; Table 2, 25 mg/kg) was 6.9%, the “Swimming time change rate” value (ICR mice; Table 2, 50 mg/kg) was 12.4* % and the “Effect on mice swimming time (in words)” value (ICR mice; Table 2, single use, compared with normal control group (P>0.05)) was “no significant effect on mice swimming time”.
